Consider eight compounds from patent US11332438B2, “Creatine prodrugs, compositions and methods of use thereof” (Ultragenyx Pharmaceutical Inc., priority 2017, dated 2022).

Data set [1] has as its system Phenocell CrT deficient neurons (iPSC-derived human neurons). The data set can be described thus: Creatine prodrug uptake and d3-creatine release in Phenocell CrT deficient neurons (Table 4B). It counts as cell-based. Conditions: 2 hours. As for the experimental part: Human neurons were obtained by differentiation of iPSC-derived neural stem cells for 14 days. The iPSCs were obtained from Phenocell Corporation. Neurons were cultured and differentiated to Day 10 and then frozen in liquid nitrogen. Neurons were thawed and replated at 1×10^6 per well of viable cells on poly-ornithine/laminin coated plates in 2 ml medium per well. Differentiation in complete Neurol medium with 2 ng/ml FGF2 was carried out for 4 additional days with a complete medium change (90% of medium) on Day 12. Activin A (20 ng/ml final conc.) was spiked into the cultures on Day 11 and Day 13. […] In parallel, compounds were incubated in medium alone to assess chemical stability of parent prodrug and metabolites. At the end of the 2 hour incubation, supernatants were collected and frozen at −80 C. Neurons in 6 well plates were washed gently 3× with HBSS and frozen at −80° C. Cell lysates were obtained by addition of 130 μl/well 10 mM Tris pH 7.4 with complete Mini protease inhibitors and scraping of wells. Plates were kept on ice during processing. Lysates were homogenized by hand briefly with a green pestle in 1.5 ml centrifuge tubes and then vortexed at high speed for 5 seconds. Lysates were centrifuged at 13,000 g, 10 minutes, 4 C and supernatants (cytosol fraction) were transferred in a new tube. A crash solution constituted of 80% acetonitrile and 20% water with bucetin, d5-Cr (internal standard) was added at 4:1 volume to volume to 50 ul of all samples for a total volume of 250 μL. Then plate was spun at 4000 rpm, 10 minutes, […] Samples were transferred to a new plate and frozen at −80 C prior to analysis by LC-MS/MS (Table 4B).

Data set [2] is described as follows: Chemical stability in phosphate buffered saline (PBS). It counts as physicochemical. Conditions: Table 2B, 50 μM prodrug. As for the experimental part:
(§1) Chemical stability of creatine prodrugs in phosphate buffered saline (PBS), simulated intestinal fluid (SIF) without pancreatin, simulated gastric fluid (SGF) without pepsin were determined by LC-UV, LC-CAD, LC-UV-CAD or LC-MS/MS as appropriate. Creatine prodrugs of the present disclosure (50 μM) were incubated at 37° C. according to described protocols and prodrug levels were compared between t=0, t=15, t=60, and t=120 mins by peak area ratio to determine the percentage remained at t=120 mins (2 h).
(§2) Protocol for PBS, SIF and SGF stability for screening:
(§3) Prodrugs (50 μM) were incubated in PBS, FaSSIF (Biorelevant) or FaSSGF (Biorelevant) at 37° C.

Data set [3] in a line: Chemical stability in simulated gastric fluid (SGF) without pepsin. It counts as physicochemical. The settings on record: Table 2B, 50 μM prodrug. The protocol:
as §1, §2, §3

As to `[2H]C([2H])([2H])N1CC(=O)OC(C)(C)CCCCCCCCC(=O)NC1=N` [Compound HH, 5-imino-4-trideuteriomethyl-16,16-Dimethyl-1-oxa-4,6-diazacyclohexadecane-2,7-dione], in data set [1] (Study No. 3, 50 μM), the “Prodrug concentration in the cell cytosol” value (“Prodrug concentration” below) came out at 0.088 nmoles/mg protein and the “d3-Creatine concentration in the cell cytosol” value (“d3-Creatine concentration” for short) was “BLOQ”.
In the case of `[2H]C([2H])([2H])N1CC(=O)OC(C)CCCCCCCC(=O)NC1=N` (stereo not shown) [Compound S, 5-imino-4-trideuteriomethyl-15-methyl-1-oxa-4,6-diazacyclopentadecane-2,7-dione], in data set [1] (Study No. 3, 50 μM), the “Prodrug concentration” value is listed as “BLOQ” and the “d3-Creatine concentration” value is recorded as “BLOQ”.
On to `[2H]C([2H])([2H])N1CC(=O)OC(CCC)CCCCCCCC(=O)NC1=N` (stereo not shown) [Compound W, 5-imino-4-trideuteriomethyl-15-propyl-1-oxa-4,6-diazacyclopentadecane-2,7-dione], for which, in data set [1] (Study No. 3, 50 μM), the “Prodrug concentration” value came to 0.44 nmoles/mg protein and the “d3-Creatine concentration” value is “BLOQ”.
In the same order, the values of `[2H]C([2H])([2H])N1CC(=O)OC(C)(C)CCCCCCCC(=O)NC1=N` [Compound X, 5-imino-15,15-dimethyl-4-(methyl-d3)-1-oxa-4,6-diazacyclopentadecane-2,7-dione] are “BLOQ” and “BLOQ”.
As to `[2H]C([2H])([2H])N1CC(=O)OC(C)CCCCCCCCCCC(=O)NC1=N` (stereo not shown) [Compound M], the “Prodrug concentration” value in data set [1] (Study No. 2, 100 μM) is reported as “BLOQ”; in data set [1] (Study No. 2, 500 μM), “BLOQ”.
With `[2H]C([2H])([2H])N1CC(=O)OC(CC)CCCCCCCC(=O)NC1=N` (stereo not shown) [Compound V, 15-ethyl-5-imino-4-(methyl-d3)-1-oxa-4,6-diazacyclopentadecane-2,7-dione], in data set [1] (Study No. 3, 50 μM), the “Prodrug concentration” value was “BLOQ” and the “d3-Creatine concentration” value is on record as “BLOQ”.
Regarding `[2H]C([2H])([2H])N1CC(=O)OCCCCCCC(=O)NC1=N` [Compound EE, 5-imino-4-trideuteriomethyl-1-oxa-4,6-diazacyclotridecane-2,7-dione], in data set [1] (Study No. 3, 50 μM), the “Prodrug concentration” value was “BLOQ” and the “d3-Creatine concentration” value was “BLOQ”.
Consider `Cl.[2H]C([2H])([2H])N(CC(=O)OC(C)C(C)(C)C)C(=N)NC(=O)CCCCCCCCCC` (stereo not shown) [Compound 52], for which the “Chemical Stability PBS % T0 at 2 hours at 37 °C.” value in data set [2] came to 98%. Besides, in data set [3], the “Chemical Stability SGF, no enzyme % T0 at 2 hours at 37 °C.” value is on record as 98%. In addition, the “Prodrug concentration” value worked out at 3.47 nmoles/mg protein in data set [1] (Study No. 1, 10 μM); 12 nmoles/mg protein in data set [1] (Study No. 1, 50 μM); 9.5 nmoles/mg protein in data set [1] (Study No. 2, 50 μM); 0.51 nmoles/mg protein in data set [1] (Study No. 3, 50 μM). Moreover, the “d3-Creatine concentration” value in data set [1] (Study No. 1, 10 μM) worked out at 0.65 nmoles/mg protein; in data set [1] (Study No. 1, 50 μM), 2.9 nmoles/mg protein; in data set [1] (Study No. 2, 50 μM), 0.8 nmoles/mg protein; in data set [1] (Study No. 3, 50 μM) it was 2.84 nmoles/mg protein. For the same compound, the “d3-Creatinine concentration in the cell cytosol” value in data set [1] (Study No. 1, 10 μM) is given as 0.84 nmoles/mg protein; in data set [1] (Study No. 1, 50 μM), 29.6 nmoles/mg protein; in data set [1] (Study No. 2, 50 μM), 10.6 nmoles/mg protein; in data set [1] (Study No. 3, 50 μM) it was 8.82 nmoles/mg protein.
